From ChEMBL document CHEMBL1123205, “Synthesis and antihypertensive activity of a series of 4-amino-6,7-dimethoxyquinazoline derivatives” (1986)

Columns and labels:
Type in all cases: functional
Rattus norvegicus [1] = experiment: Antihypertensive activity determined as percent fall in blood pressure after 2 hr in spontaneously hypertensive rats administered with 10 mg/kg (po)
Rattus norvegicus [2] = experiment: Antihypertensive activity determined as percent fall in blood pressure after 4 hours in spontaneously hypertensive rats administered with 10 mg/kg, (po)
Rattus norvegicus [3] = experiment: Antihypertensive activity determined as percent fall in blood pressure after 2 hr in spontaneously hypertensive rats administered with 3 mg/kg (po)
Rattus norvegicus [4] = experiment: Antihypertensive activity determined as percent fall in blood pressure after 4 hours in spontaneously hypertensive rats administered with 3 mg/kg, (po)

Row | Structure (SMILES) | Activity (Rattus norvegicus [1]) | Activity (Rattus norvegicus [2]) | Activity (Rattus norvegicus [3]) | Activity (Rattus norvegicus [4])
1 | COc1cc2nc(N(C)CCCNC(=O)C3CCCO3)nc(N)c2cc1OC.Cl (configuration not stated) [ALFUZOSIN HYDROCHLORIDE] | -34% | -24% |  | 
2 | COc1cc2nc(N(C)CCCNC(=O)c3cc4ccccc4o3)nc(N)c2cc1OC.Cl | 0% | 0% |  | 
3 | COc1cc2nc(N(C)CCCNC(=O)C3Cc4ccccc4O3)nc(N)c2cc1OC.Cl (configuration not stated) | -22% | -19% |  | 
4 | COc1cc2nc(N(C)CCCN(C)C(=O)c3cccnc3)nc(N)c2cc1OC.Cl | -5% | -9% |  | 
5 | COc1cc2nc(N(C)CCCN(C)C(=O)c3ccco3)nc(N)c2cc1OC.Cl | -24% | -20% |  | 
6 | COc1cc2nc(N3CCN(C(=O)c4ccco4)CC3)nc(N)c2cc1OC.Cl [PRAZOSIN HYDROCHLORIDE] | -37% | -35% | -30% | -25%
7 | COc1cc2nc(N(C)CCCNC(=O)C3COc4ccccc4O3)nc(N)c2cc1OC.Cl (configuration not stated) | 2% | -6% |  | 
8 | COc1cc2nc(N(C)CCCNC(=O)/C=C/c3ccccc3)nc(N)c2cc1OC.Cl | 0% | 3% |  | 
9 | COc1cc2nc(N(C)CCN(C)C(=O)c3ccccc3)nc(N)c2cc1OC | 0% | 0% |  | 
10 | COc1cc2nc(N(C)CCCN(C)C(=O)c3cc(OC)c(OC)c(OC)c3)nc(N)c2cc1OC.Cl | -11% | -6% |  | 
11 | CCN(CCCN(CC)c1nc(N)c2cc(OC)c(OC)cc2n1)C(=O)c1ccco1.Cl | -16% | -11% |  | 
12 | COc1cc2nc(N(C)CCCNC(=O)c3ccco3)nc(N)c2cc1OC.Cl | -20% | -17% |  | 
13 | COc1cc2nc(N(C)CCCNC(=O)c3ccccc3)nc(N)c2cc1OC.Cl | -31% | -23% |  | 
14 | COc1cc2nc(N(C)CCCNC(=O)C3CC3)nc(N)c2cc1OC.Cl | -19% | -12% |  | 
15 | COc1cc2nc(N(C)CCCCN(C)C(=O)c3ccccc3)nc(N)c2cc1OC.Cl | -21% | -12% |  | 
16 | COc1cc(OC)cc(C(=O)N(C)CCCN(C)c2nc(N)c3cc(OC)c(OC)cc3n2)c1.Cl | -6% | -2% |  | 
17 | COc1cc2nc(N(C)CCCN(C)C(=O)C3CCCO3)nc(N)c2cc1OC.Cl (configuration not stated) | -14% | -7% |  | 
18 | COc1cc2nc(N(C)CCCN(C)C(=O)c3ccccc3)nc(N)c2cc1OC.Cl | -23% | -15% |  | 
19 | CCN(CCCN(CC)c1nc(N)c2cc(OC)c(OC)cc2n1)C(=O)c1ccccc1.Cl | -1% | -5% |  | 
20 | COc1cc2nc(NCCCNC(=O)c3ccccc3)nc(N)c2cc1OC.Cl | -9% | -7% |  | 
21 | CCN(CCCN(C)C(=O)c1ccccc1)c1nc(N)c2cc(OC)c(OC)cc2n1.Cl | -16% | -12% |  | 
22 | COc1cc2nc(N(C)CCCN(C)C(=O)c3cccc(C)c3)nc(N)c2cc1OC.Cl | -10% | 0% |  | 
23 | COc1cc2nc(N(C)CCCNC(=O)C3CCOCC3)nc(N)c2cc1OC | -27% | -7% |  | 
24 | COc1cc2nc(N(C)CCN(C)C(=O)c3ccco3)nc(N)c2cc1OC.Cl | 0% | 0% |  | 
25 | COc1cc2nc(NCCCN(C)C(=O)C3CCCO3)nc(N)c2cc1OC.Cl (configuration not stated) | -8% | -6% |  | 
26 | COc1cc2nc(N(C)CCCNC(=O)C3CCOC3)nc(N)c2cc1OC.Cl (configuration not stated) | -24% | -10% |  | 
27 | COc1cc2nc(N(C)CCCNC(=O)C3CCCC3)nc(N)c2cc1OC.Cl | -30% | -20% |  | 
28 | COc1cc2nc(N(C)CCCN(C)C(=O)c3nnc(SC)o3)nc(N)c2cc1OC.Cl | -20% | -6% |  | 
29 | COc1cc2nc(N(C)CCCN(CC(C)C)C(=O)c3ccccc3)nc(N)c2cc1OC.Cl | 0% | 6% |  | 
30 | COc1cccc(C(=O)N(C)CCCN(C)c2nc(N)c3cc(OC)c(OC)cc3n2)c1.Cl | -12% | 0% |  | 
